Data from paper PMC7982320 (Pharmacology Research & Perspectives, 2021).

Columns and labels:
[1] = healthy male subjects, single oral dose of 60 mg 14C‐DFZ; cited from earlier work
[2] = cited from earlier work
[3] = system: CYP1A2; assay: in vitro; format: in vitro ADME, human; conditions: human
[4] = system: CYP2B6; assay: in vitro; format: in vitro ADME, human; conditions: human, 10 µM
[5] = system: CYP3A4; assay: in vitro; conditions: human
[6] = CYP1A2 enzyme activity fold induction, donor one
[7] = CYP1A2 enzyme activity fold induction, donor three
[8] = CYP1A2 enzyme activity fold induction, donor two
[9] = CYP1A2 mRNA fold induction, donor one
[10] = CYP1A2 mRNA fold induction, donor three
[11] = CYP1A2 mRNA fold induction, donor two

Q: For CC1=N[C@]2(C(=O)CO)[C@@H](C[C@H]3[C@@H]4CCC5=CC(=O)C=C[C@]5(C)[C@H]4[C@@H](O)C[C@@]32C)O1 [21‐desDFZ, 21‐desacetyl deflazacort], which “share of 0–24 h plasma levels of total radioactivity” value [1] is on record?
A: The value was 33%.

Q: And the “protein binding in human plasma” value [2]?
A: The value was “about 40%”.

Q: Which fold induction at 48 h, 10 µM [3, 6] does the source give for COc1c(N2CCNC(C)C2)c(F)cc2c(=O)c(C(=O)O)cn(C3CC3)c12 (centres unmarked) [Gatifloxacin, reference compound] here?
A: The fold induction at 48 h, 10 µM was 0.744.

Q: What about the fold induction at 48 h, 10 µM [3, 7] of the same compound?
A: The fold induction at 48 h, 10 µM was 0.996.

Q: What about the fold induction at 48 h, 10 µM [3, 8] of the same compound?
A: The fold induction at 48 h, 10 µM was 0.805.

Q: What about the fold induction at 48 h, 10 µM [3, 9] of the same compound?
A: Its fold induction at 48 h, 10 µM is 0.941.

Q: And the fold induction at 48 h, 10 µM [3, 10]?
A: The fold induction at 48 h, 10 µM was 0.898.

Q: And the fold induction at 48 h, 10 µM [3, 11]?
A: Its fold induction at 48 h, 10 µM is 1.12.

Q: And the fold induction at 48 h, 10 µM ([4]; CYP2B6 enzyme activity fold induction, donor one)?
A: The fold induction at 48 h, 10 µM was 0.719.

Q: What about the fold induction at 48 h, 10 µM ([4]; CYP2B6 enzyme activity fold induction, donor three) of the same compound?
A: Its fold induction at 48 h, 10 µM is 0.875.

Q: What about the fold induction at 48 h, 10 µM ([4]; CYP2B6 enzyme activity fold induction, donor two) of the same compound?
A: Its fold induction at 48 h, 10 µM is 1.05.

Q: What about the fold induction at 48 h, 10 µM ([4]; CYP2B6 mRNA fold induction, donor one) of the same compound?
A: The fold induction at 48 h, 10 µM was 0.965.

Q: And the fold induction at 48 h, 10 µM ([4]; CYP2B6 mRNA fold induction, donor three)?
A: Its fold induction at 48 h, 10 µM is 0.989.

Q: And the fold induction at 48 h, 10 µM ([4]; CYP2B6 mRNA fold induction, donor two)?
A: Its fold induction at 48 h, 10 µM is 0.685.

Q: What about the fold induction at 48 h, 10 µM ([5]; CYP3A4 enzyme activity fold induction, donor one) of the same compound?
A: Its fold induction at 48 h, 10 µM is 0.881.

Q: What about the fold induction at 48 h, 10 µM ([5]; CYP3A4 enzyme activity fold induction, donor three) of the same compound?
A: Its fold induction at 48 h, 10 µM is 1.44.

Q: What about the fold induction at 48 h, 10 µM ([5]; CYP3A4 enzyme activity fold induction, donor two) of the same compound?
A: The fold induction at 48 h, 10 µM was 0.861.

Q: And the fold induction at 48 h, 10 µM ([5]; CYP3A4 mRNA fold induction, donor one)?
A: Its fold induction at 48 h, 10 µM is 0.612.

Q: What about the fold induction at 48 h, 10 µM ([5]; CYP3A4 mRNA fold induction, donor three) of the same compound?
A: Its fold induction at 48 h, 10 µM is 1.18.

Q: What about the fold induction at 48 h, 10 µM ([5]; CYP3A4 mRNA fold induction, donor two) of the same compound?
A: The fold induction at 48 h, 10 µM was 0.591.

Q: Which fold induction at 48 h, 100 µM [3, 6] does the source give for COc1ccc2[nH]c([S+]([O-])Cc3ncc(C)c(OC)c3C)nc2c1 (centres unmarked) [Omeprazole, reference compound] here?
A: Its fold induction at 48 h, 100 µM is 3.55.

Q: And the fold induction at 48 h, 100 µM [3, 7]?
A: Its fold induction at 48 h, 100 µM is 8.36.

Q: And the fold induction at 48 h, 100 µM [3, 8]?
A: Its fold induction at 48 h, 100 µM is 5.48.

Q: And the fold induction at 48 h, 100 µM [3, 9]?
A: Its fold induction at 48 h, 100 µM is 39.6.

Q: What about the fold induction at 48 h, 100 µM [3, 10] of the same compound?
A: Its fold induction at 48 h, 100 µM is 40.5.

Q: And the fold induction at 48 h, 100 µM [3, 11]?
A: Its fold induction at 48 h, 100 µM is 34.8.
